Test results published in patent publication US10597388B2, “Pyridazinone herbicides” (FMC CORPORATION, priority 2014, dated 2020).

Columns and labels:
Assay in all cases: Test D controlled growth environment herbicide test, pre- and postemergence
Format in all cases: in vivo
kochia (Kochia scoparia) = tested on: kochia (Kochia scoparia)
Method in brief: (§1)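 Species sown in silt loam and sprayed preemergence, or grown in peat-based medium to 2–18 cm (1- to 4-leaf stage) and sprayed postemergence, with compounds in non-phytotoxic solvent plus surfactant. Visual injury scored versus controls after 14–21 d in a controlled environment, 0 (no effect) to 100 (complete control).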

[1] = tested on: barley, winter (winter barley, Hordeum vulgare)
Method in brief: as §1

[2] = tested on: galium (catchweed bedstraw, Galium aparine)
Method in brief: as §1

[3] = tested on: pigweed (Amaranthus retroflexus)
Method in brief: as §1

[4] = tested on: field violet (Viola arvensis)
Method in brief: as §1

[5] = tested on: foxtail, green (green foxtail, Setaria viridis)
Method in brief: as §1

[6] = tested on: bluegrass (annual bluegrass, Poa annua)
Method in brief: as §1

[7] = tested on: blackgrass (Alopecurus myosuroides)
Method in brief: as §1

[8] = tested on: chamomile (scentless chamomile, Matricaria inodora)
Method in brief: as §1

[9] = tested on: bromegrass, downy (downy bromegrass, Bromus tectorum)
Method in brief: as §1

[10] = tested on: chickweed (common chickweed, Stellaria media)
Method in brief: as §1

[11] = tested on: lambsquarters (Chenopodium album)
Method in brief: as §1

[12] = tested on: wheat, winter (winter wheat, Triticum aestivum)
Method in brief: as §1

[13] = Postemergence, 31 g ai/ha, scale 0 to 100 (0 no effect, 100 complete control)
[14] = Postemergence, 125 g ai/ha, visual rating on scale 0 (no effect) to 100 (complete control), 14 to 21 d
[15] = Postemergence, 250 g ai/ha, scale 0 to 100 (0 no effect, 100 complete control)
[16] = Preemergence, 62 g ai/ha, scale 0 to 100 (0 no effect, 100 complete control)
[17] = Preemergence, 125 g ai/ha, scale 0 to 100 (0 no effect, 100 complete control)
[18] = Preemergence, 250 g ai/ha, scale 0 to 100, 0 no effect, 100 complete control
[19] = postemergence, 62 g ai/ha, scale 0 to 100, 0 no effect, 100 complete control

`Cc1ccc2ccccc2c1-c1c(OC(=O)OC(C)C)c(C)nn(C)c1=O` [Compound 72] was tested, and the “Kochia plant response rating” value (kochia (Kochia scoparia); [13]) was 80, the “Plant response rating, Kochia” value (kochia (Kochia scoparia); [14]) was 100 and the “Plant response rating, Kochia” value (kochia (Kochia scoparia); [15]) was 100. The “Plant response rating (scale of 0 to 100), Kochia” value (kochia (Kochia scoparia); Preemergence, 31 g ai/ha) was 10, the “Plant response rating, Kochia” value (kochia (Kochia scoparia); [16]) was 15 and the “Plant response rating, Kochia” value (kochia (Kochia scoparia); [17]) was 10. The “Plant response rating, Kochia” value (kochia (Kochia scoparia); [18]) was 40, the “Plant response rating, Kochia” value (kochia (Kochia scoparia); [19]) was 95 and the “Barley, Winter plant response rating” value [1, 13] was 10. The “Plant response rating, Barley, Winter” value [1, 14] was 30, the “Plant response rating, Barley, Winter” value [1, 15] was 35 and the “Plant response rating (scale of 0 to 100), Barley, Winter” value ([1]; Preemergence, 31 g ai/ha) was 5. For the same molecule, the “Plant response rating, Barley, Winter” value [1, 16] was 25, the “Plant response rating, Barley, Winter” value [1, 17] was 50 and the “Plant response rating, Barley, Winter” value [1, 18] was 75. For the same molecule, the “Plant response rating, Barley, Winter” value [1, 19] was 20, the “Galium plant response rating” value [2, 13] was 95 and the “Plant response rating, Galium” value [2, 14] was 100. For the same molecule, the “Plant response rating, Galium” value [2, 15] was 100, the “Plant response rating (scale of 0 to 100), Galium” value ([2]; Preemergence, 31 g ai/ha) was 20 and the “Plant response rating, Galium” value [2, 16] was 60. The “Plant response rating, Galium” value [2, 17] was 70, the “Plant response rating, Galium” value [2, 18] was 85 and the “Plant response rating, Galium” value [2, 19] was 100. For the same molecule, the “Pigweed plant response rating” value [3, 13] was 95, the “Plant response rating, Pigweed” value [3, 14] was 100 and the “Plant response rating, Pigweed” value [3, 15] was 100. The “Plant response rating (scale of 0 to 100), Pigweed” value ([3]; Preemergence, 31 g ai/ha) was 35, the “Plant response rating, Pigweed” value [3, 16] was 85 and the “Plant response rating, Pigweed” value [3, 17] was 95. For the same molecule, the “Plant response rating, Pigweed” value [3, 18] was 100, the “Plant response rating, Pigweed” value [3, 19] was 100 and the “Field Violet plant response rating” value [4, 13] was 90. The “Plant response rating, Field Violet” value [4, 14] was 95, the “Plant response rating, Field Violet” value [4, 15] was 95 and the “Plant response rating (scale of 0 to 100), Field Violet” value ([4]; Preemergence, 31 g ai/ha) was 10. The “Plant response rating, Field Violet” value [4, 16] was 75, the “Plant response rating, Field Violet” value [4, 17] was 75 and the “Plant response rating, Field Violet” value [4, 18] was 95. The “Plant response rating, Field Violet” value [4, 19] was 95, the “Foxtail, Green plant response rating” value [5, 13] was 60 and the “Plant response rating, Foxtail, Green” value [5, 14] was 70. The “Plant response rating, Foxtail, Green” value [5, 15] was 75, the “Plant response rating (scale of 0 to 100), Foxtail, Green” value ([5]; Preemergence, 31 g ai/ha) was 20 and the “Plant response rating, Foxtail, Green” value [5, 16] was 30. For the same molecule, the “Plant response rating, Foxtail, Green” value [5, 17] was 60, the “Plant response rating, Foxtail, Green” value [5, 18] was 85 and the “Plant response rating, Foxtail, Green” value [5, 19] was 65. The “Bluegrass plant response rating” value [6, 13] was 20, the “Plant response rating, Bluegrass” value [6, 14] was 40 and the “Plant response rating, Bluegrass” value [6, 15] was 55. For the same molecule, the “Plant response rating (scale of 0 to 100), Bluegrass” value ([6]; Preemergence, 31 g ai/ha) was 10, the “Plant response rating, Bluegrass” value [6, 16] was 25 and the “Plant response rating, Bluegrass” value [6, 17] was 25. The “Plant response rating, Bluegrass” value [6, 18] was 50, the “Plant response rating, Bluegrass” value [6, 19] was 35 and the “Blackgrass plant response rating” value [7, 13] was 40. For the same molecule, the “Plant response rating, Blackgrass” value [7, 14] was 75, the “Plant response rating, Blackgrass” value [7, 15] was 80 and the “Plant response rating (scale of 0 to 100), Blackgrass” value ([7]; Preemergence, 31 g ai/ha) was 15. For the same molecule, the “Plant response rating, Blackgrass” value [7, 16] was 30, the “Plant response rating, Blackgrass” value [7, 17] was 55 and the “Plant response rating, Blackgrass” value [7, 18] was 75. The “Plant response rating, Blackgrass” value [7, 19] was 70, the “Chamomile plant response rating” value [8, 13] was 75 and the “Plant response rating, Chamomile” value [8, 14] was 85. The “Plant response rating, Chamomile” value [8, 15] was 100, the “Plant response rating, Chamomile” value [8, 19] was 80 and the “Bromegrass, Downy plant response rating” value [9, 13] was 45. The “Plant response rating, Bromegrass, Downy” value [9, 14] was 65, the “Plant response rating, Bromegrass, Downy” value [9, 15] was 75 and the “Plant response rating (scale of 0 to 100), Bromegrass, Downy” value ([9]; Preemergence, 31 g ai/ha) was 0. The “Plant response rating, Bromegrass, Downy” value [9, 16] was 0, the “Plant response rating, Bromegrass, Downy” value [9, 17] was 35 and the “Plant response rating, Bromegrass, Downy” value [9, 18] was 60. The “Plant response rating, Bromegrass, Downy” value [9, 19] was 55, the “Chickweed plant response rating” value [10, 13] was 98 and the “Plant response rating, Chickweed” value [10, 14] was 100. For the same molecule, the “Plant response rating, Chickweed” value [10, 15] was 100, the “Plant response rating (scale of 0 to 100), Chickweed” value ([10]; Preemergence, 31 g ai/ha) was 70 and the “Plant response rating, Chickweed” value [10, 16] was 100. The “Plant response rating, Chickweed” value [10, 17] was 100, the “Plant response rating, Chickweed” value [10, 18] was 100 and the “Plant response rating, Chickweed” value [10, 19] was 100. For the same molecule, the “Lambsquarters plant response rating” value [11, 13] was 80, the “Plant response rating, Lambsquarters” value [11, 14] was 90 and the “Plant response rating, Lambsquarters” value [11, 15] was 100. The “Plant response rating (scale of 0 to 100), Lambsquarters” value ([11]; Preemergence, 31 g ai/ha) was 35, the “Plant response rating, Lambsquarters” value [11, 16] was 100 and the “Plant response rating, Lambsquarters” value [11, 17] was 95. The “Plant response rating, Lambsquarters” value [11, 18] was 95, the “Plant response rating, Lambsquarters” value [11, 19] was 95 and the “Wheat, Winter plant response rating” value [12, 13] was 25. The “Plant response rating, Wheat, Winter” value [12, 14] was 50, the “Plant response rating, Wheat, Winter” value [12, 15] was 60 and the “Plant response rating (scale of 0 to 100), Wheat, Winter” value ([12]; Preemergence, 31 g ai/ha) was 5. For the same molecule, the “Plant response rating, Wheat, Winter” value [12, 16] was 10, the “Plant response rating, Wheat, Winter” value [12, 17] was 25 and the “Plant response rating, Wheat, Winter” value [12, 18] was 45. For the same molecule, the “Plant response rating, Wheat, Winter” value [12, 19] was 35.
